Experimental data published in PubChem BioAssay AID2060346 (Molecular Pharmacology Branch, DTP, NCI, 2025).
Activity calls are given as the source filed them. The calls were made as follows: active = viability on the fitted dose curve at most 10% of control; inactive = the rest.

Test system: CN0375-F725-PDC multi-cell spheroids, viability
Assay: Anticancer human tumor CN0375-F725-PDC patient-derived colon carcinoma cell line growth inhibition [TAK]
Settings: for IC50: curve of first compound; for viability, T/C: stronger effect = lower value
Text: Combinatorial screen of targeted agents with TAK-243 and ipatasertib in multi-cell type tumor spheroids
A high-throughput screen of multi-cell type tumor spheroids was designed to identify active combinations of targeted small molecules and TAK-243 or ipatasertib. Complex spheroids include a stromal component modeled by human endothelial cells (HUVEC) and fibroblasts modeled by human mesenchymal stem cells (MSCs). The concentration ranges selected for each drug and investigational agent were based upon clinically achievable concentrations if the clinical Cmax of the agent was known.
Compounds. The drugs and investigational agents: TAK-243 (785004), ipatasertib (767898), everolimus (733504), selumetinib (741078), bortezomib (756655), trametinib (758246), ixazomib (758254), vemurafenib (761431), dabrafenib (764134), sapanisertib (764658), alpelisib (765974), and copanlisib (816437), were obtained from the National Cancer Institute (NCI) Developmental Therapeutics Program Chemical Repository. The FDA-approved anticancer drug set is available from the NCI Developmental Therapeutics Program. […] The stock solutions were prepared in dimethyl sulfoxide (DMSO, Sigma-Aldrich, St. Louis, MO, cat. D2650) at 800-fold the tested concentration and stored at -70 degrees C prior to their use. All drugs and investigational agents were tested over a range starting from a high concentration at or near the clinical Cmax and decreasing in half-log increments. If the clinical Cmax for an agent had not been determined, the highest concentration tested was 10 microM.
NCI60 Cell Culture. NCI60 cell lines were obtained from the NCI Developmental Therapeutics Program Tumor Repository. For each lot of cells, the Repository performed Applied Biosystems AmpFLSTR Identifiler testing with PCR amplification to confirm consistency with the published Identifier STR profile for each cell line. Cells were kept in continuous culture for no more than 20 passages. The optimal seeding densities for each of the cell lines at each time point assessed were determined prior to performing the concentration response studies. Briefly, the NCI60 human tumor lines were grown as monolayers in RPMI 1640 medium supplemented with 10% FBS and 2 mmol/L L-glutamine.
An additional 2 lines were from the NCI60 cell line panel including melanomas, MALME-3M and SK-MEL-2. Pooled donor human umbilical vein endothelial cells (HUVEC, Lonza, cat. CC-2519) and human mesenchymal stem cells (hMSC, Lonza, cat. PT-2501) were purchased from Lonza (Walkersville, MD).
PDMR cell lines were grown in complete medium (DC medium): Dulbecco's modified Eagle's medium (DMEM)/F12 supplemented with 5% fetal bovine serum (FBS), 2 mM L-glutamine, 100 U/mL penicillin and 100 µg/ml streptomycin, 0.4 µg/ml hydrocortisone, 10 ng/ml epidermal growth factor (EGF) recombinant human protein, 24 µg/mL adenine, and 0.1 mg/mL primocin. During culture from frozen stock vials, PDMR cells were cultured in the same medium containing 10 µM Y-27632 (see Table 3). The PDCs were cultured in complete DMEM/F12 media without 10 microM Y-27632 dihydrochloride for at least two passages prior to the screen. The pooled donor HUVEC and hMSC were cultured in endothelial cell growth medium 2 (PromoCell, Heidelberg, Germany, cat. C-22011) and mesenchymal stem cell growth medium 2 (PromoCell, cat. C-28009), respectively. For all experiments, HUVEC and hMSC were used at passages </=5.
For the pre-screen, cell seeding densities were determined from a titration spanning the range from 5,000 to 313 cells per well. The mct-spheroids including 60% malignant cells, 25% HUVEC and 15% MSC dispensed as a mixture into U-bottom Ultra-Low Attachment 384-well plates (Corning, NY)
High-throughput Drug Combination Screening.
Prior to their inoculation into 384-well plates, malignant cells, HUVEC, and hMSC were removed from T flasks using TrypLE express (Thermo Fisher Scientific, cat. 12605036) and harvested by centrifugation for 5 min at 233 x g. […]
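For IC50 in this document: spheroids exposed to drugs for seven days.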
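For viability, T/C in this document: spheroids exposed to drugs for seven days.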

CC(C)CC(NC(=O)C(Cc1ccccc1)NC(=O)c1cnccn1)B(O)O (stereo not given) + CC(C)NCC(C(=O)N1CCN(c2ncnc3c2C(C)CC3O)CC1)c1ccc(Cl)cc1
2.49 nM: IC50 (second compound 30 µM)
7.86 nM: IC50 (second compound 3 µM)
active: viability, T/C (second compound 30 µM, first compound 0.01 µM) 9.84%
5.85 nM: IC50 (second compound 9.49 µM)
7.9 nM: IC50 (second compound 0.949 µM)
7.39 nM: IC50 (second compound 0.3 µM)
inactive: viability, T/C (second compound 0.3 µM, first compound 31.6 pM) 100% | viability, T/C (second compound 0.3 µM, first compound 0.0001 µM) 99% | viability, T/C (second compound 0.3 µM, first compound 0.000316 µM) 93.6% | viability, T/C (second compound 0.3 µM, first compound 0.001 µM) 99.5% | viability, T/C (second compound 0.3 µM, first compound 0.00316 µM) 92.1% | viability, T/C (second compound 0.3 µM, first compound 0.01 µM) 34.9% | viability, T/C (second compound 0.949 µM, first compound 31.6 pM) 99.6% | viability, T/C (second compound 0.949 µM, first compound 0.0001 µM) 101% | outcome (second compound 0.949 µM, first compound 0.000316 µM) | viability, T/C (second compound 0.949 µM, first compound 0.001 µM) 90.3% | viability, T/C (second compound 0.949 µM, first compound 0.00316 µM) 93% | viability, T/C (second compound 0.949 µM, first compound 0.01 µM) 38.8% | viability, T/C (second compound 3 µM, first compound 31.6 pM) 89.3% | viability, T/C (second compound 3 µM, first compound 0.0001 µM) 93% | viability, T/C (second compound 3 µM, first compound 0.000316 µM) 91.8% | viability, T/C (second compound 3 µM, first compound 0.001 µM) 93.1% | viability, T/C (second compound 3 µM, first compound 0.00316 µM) 82.8% | viability, T/C (second compound 3 µM, first compound 0.01 µM) 41.2% | viability, T/C (second compound 9.49 µM, first compound 31.6 pM) 85.2% | viability, T/C (second compound 9.49 µM, first compound 0.0001 µM) 95.3% | viability, T/C (second compound 9.49 µM, first compound 0.000316 µM) 87.2% | viability, T/C (second compound 9.49 µM, first compound 0.001 µM) 93.6% | viability, T/C (second compound 9.49 µM, first compound 0.00316 µM) 76.7% | viability, T/C (second compound 9.49 µM, first compound 0.01 µM) 26.6% | viability, T/C (second compound 30 µM, first compound 31.6 pM) 72.3% | viability, T/C (second compound 30 µM, first compound 0.0001 µM) 86.8% | viability, T/C (second compound 30 µM, first compound 0.000316 µM) 84.4% | viability, T/C (second compound 30 µM, first compound 0.001 µM) 76.6% | viability, T/C (second compound 30 µM, first compound 0.00316 µM) 42.9%

Cn1cnc2c(F)c(Nc3ccc(Br)cc3Cl)c(C(=O)NOCCO)cc21 + CC(C)NCC(C(=O)N1CCN(c2ncnc3c2C(C)CC3O)CC1)c1ccc(Cl)cc1
inactive: viability, T/C (second compound 0.3 µM, first compound 0.00949 µM) 91.4% | viability, T/C (second compound 0.3 µM, first compound 0.03 µM) 75.3% | viability, T/C (second compound 0.3 µM, first compound 0.0949 µM) 58.8% | viability, T/C (second compound 0.3 µM, first compound 0.3 µM) 50% | viability, T/C (second compound 0.3 µM, first compound 0.949 µM) 38.6% | viability, T/C (second compound 0.3 µM, first compound 3 µM) 30.6% | viability, T/C (second compound 0.949 µM, first compound 0.00949 µM) 83.5% | viability, T/C (second compound 0.949 µM, first compound 0.03 µM) 78.6% | viability, T/C (second compound 0.949 µM, first compound 0.0949 µM) 57.6% | viability, T/C (second compound 0.949 µM, first compound 0.3 µM) 48.3% | viability, T/C (second compound 0.949 µM, first compound 0.949 µM) 36% | viability, T/C (second compound 0.949 µM, first compound 3 µM) 31.1% | viability, T/C (second compound 3 µM, first compound 0.00949 µM) 79.6% | viability, T/C (second compound 3 µM, first compound 0.03 µM) 72% | viability, T/C (second compound 3 µM, first compound 0.0949 µM) 56.9% | viability, T/C (second compound 3 µM, first compound 0.3 µM) 41.4% | viability, T/C (second compound 3 µM, first compound 0.949 µM) 34.2% | viability, T/C (second compound 3 µM, first compound 3 µM) 29.3% | viability, T/C (second compound 9.49 µM, first compound 0.00949 µM) 77.8% | viability, T/C (second compound 9.49 µM, first compound 0.03 µM) 69.4% | viability, T/C (second compound 9.49 µM, first compound 0.0949 µM) 58.2% | viability, T/C (second compound 9.49 µM, first compound 0.3 µM) 42.7% | viability, T/C (second compound 9.49 µM, first compound 0.949 µM) 32.7% | viability, T/C (second compound 9.49 µM, first compound 3 µM) 23.2% | viability, T/C (second compound 30 µM, first compound 0.00949 µM) 66% | viability, T/C (second compound 30 µM, first compound 0.03 µM) 64.2% | viability, T/C (second compound 30 µM, first compound 0.0949 µM) 43.5% | viability, T/C (second compound 30 µM, first compound 0.3 µM) 31.6% | viability, T/C (second compound 30 µM, first compound 0.949 µM) 22.1% | viability, T/C (second compound 30 µM, first compound 3 µM) 16.1%
222 nM: IC50 (second compound 0.949 µM)
71.2 nM: IC50 (second compound 30 µM)
178 nM: IC50 (second compound 9.49 µM)
260 nM: IC50 (second compound 0.3 µM)
161 nM: IC50 (second compound 3 µM)
